Literature values in patent US12409155B1, “Ready to use LET formulations” (QuVa Pharma, Inc., priority 2021, dated 2025).

Conditions: Handbook

## O=C(O)CC(O)(CC(=O)O)C(=O)O [citric acid]
  pKa2: 4.76
